According to US11279703B2, “Fused pyrimidine compounds as BRD4 and JAK2 dual inhibitors and methods for use thereof” (APTOSE BIOSCIENCES INC., priority 2016, dated 2022):

What follows are compounds tested against BRD4-BD1 (Homo sapiens (Human), UniProt O60885) (assay: AlphaLisa bromodomain binding assay, BRD4-BD1). Details: Table 1; read-out: BRD4 IC50.
Excerpt: An AlphaLisa assay was used to observe bromodomain binding and measure IC50s for the compounds disclosed herein. An AlphaLisa assay is a bead-based assay used to detect interactions between bromodomains and polyacetylated histone peptides. Donor and acceptor beads bound to target and ligand are brought into proximity by this protein-protein interaction.
Equipment Required • 1. […] Plate centrifuge • 3. Plate shaker • 4. […] Single channel and multi-channel pipettes • 6. Microplate reader (Pherastar)
Stock and Final Assay Concentrations (FAC) • 1. All reference and test compounds are made at a concentration of 10 mM in DMSO. Compounds are serially diluted in DMSO and a FAC starting from 10 μM to 10 point 3 fold serial dilutions is arrived. FAC of DMSO is 1%. • 2. Enzyme stock and FAC
Biotinylated substrate (Acetylated histone H4, biotinylated substrate—cat no. AS64989-025, Anaspec) stock and FAC
• 4. Acceptor and donor beads stock and FAC
Buffers • For the enzyme and substrate dilution following buffer is used (for 50 ml) • HEPES: 50 mM 2.5 ml • NaCl: 25 mM 1.25 ml • DTT: 10 mM 0.05 ml • BSA: 0.1% 0.05 g • MilliQ water: 45.7 ml • For dilution of acceptor and donor beads AlphaLISA 5× epigenetics Buffer Perkin Elmer (Cat: AL008C) is used at 1× concentration.
Procedure • 1. […] Tap the plate gently • 3. […] Cover with plate sealer • 5. […] Incubate the plate at room temperature for 10 minutes • 7. Add 10 μl of the substrate • 8. Cover with plate sealer • 9. […] Cover with plate sealer • 14. […] Cover with plate sealer • 18.
The percent inhibition is calculated in the excel analysis template and the IC50 values are subsequently determined using a sigmoidal dose-response curve (variable slope) using GraphPad Prism® 5 software.

Compound | IC50 [nM]
CC(C)(C)S(=O)(=O)Nc1cccc(Nc2nc(NC3CCNCC3)nc3sccc23)c1 [drawing 49] | 94
CC(C)(C)S(=O)(=O)Nc1cc(-n2ccc3cnc(Nc4ccc(N5CCNCC5)c(F)c4)nc32)ccc1F [drawing 50] | 6

Further lines, results first:

IC50 [nM] | Compound
94 | CN1CCC(NC(=O)c2ccc(Nc3ncc4ccn(-c5ccc(F)c(NS(=O)(=O)C(C)(C)C)c5)c4n3)cc2F)CC1 [drawing 47]
63 | CN(C)C1CCN(c2ccc(Nc3ncc4ccn(-c5ccc(F)c(NS(=O)(=O)C(C)(C)C)c5)c4n3)cc2F)CC1 [drawing 48]

Same assay, conditions: Table 2; read-out: BRD4 IC50

Compound | IC50 [nM]
CN1CCN(c2ccc(Nc3nc(Nc4cccc(NS(=O)(=O)C(C)(C)C)c4)c4ccsc4n3)cc2)CC1 [drawing 52] | 388
CC(C)(C)S(=O)(=O)N1CCc2ccc(Nc3nc(NCC4CCNCC4)nc4sccc34)cc21 [drawing 56] | 1000
CC(C)(C)S(=O)(=O)N1CCc2ccc(Nc3nc(NC4CCNC4)nc4sccc34)cc21 (centres unmarked) [drawing 58] | 2600
CN1CCC(Nc2nc(-n3ccc(C(=O)NC4CC4)c3)c3ccsc3n2)CC1 [drawing 59] | 450
O=C(NC1CC1)c1ccn(-c2nc(NC3CCNCC3)nc3sccc23)c1 [drawing 60] | 399

Further lines, results first:

IC50 [nM] | Compound
3200 | CC(C)(C)S(=O)(=O)N1CCc2ccc(Nc3nc(NC4CCOC4)nc4sccc34)cc21 (centres unmarked)
94 | CC(C)(C)S(=O)(=O)Nc1cccc(Nc2nc(NC3CCNCC3)nc3sccc23)c1 [drawing 51]
1200 | CC(C)(C)S(=O)(=O)Nc1cccc(Nc2nc(NCC3CCNCC3)nc3sccc23)c1 [drawing 53]
1700 | CC(C)(C)S(=O)(=O)Nc1cccc(Nc2nc(NC3CCNC3)nc3sccc23)c1 (centres unmarked) [drawing 54]
160 | CN1CCC(Nc2nc(Nc3ccc4c(c3)N(S(=O)(=O)C(C)(C)C)CC4)c3ccsc3n2)CC1 [drawing 55]

Same assay, conditions: Table 5; read-out: BRD4 IC50

IC50 [nM] | Compound
220 | CN1CCN(c2ccc(Nc3ncc4ccn(-c5cccc(NS(=O)(=O)C(C)(C)C)c5)c4n3)cc2)CC1 [drawing 73]

Same assay, conditions: Table 6; read-out: BRD4(1) IC50

Compound | IC50 [nM]
CNc1ncc2c(-c3cccc(-c4c(C)noc4C)c3)c[nH]c2n1 | 10000
Cc1noc(C)c1-c1ccc2nc(N)sc2c1 | 4890
CC(C)(C)S(=O)(=O)N1CCc2ccc(Nc3nc(Nc4cccnc4)nc4c3COC4)cc21 | 3610
Cc1noc(C)c1-c1cccc(-c2cn(C)c3nc(NC4CCNCC4)ncc23)c1 | 4400
CNCCNc1ncc2c(-c3cccc(-c4c(C)noc4C)c3)cn(C)c2n1 | 7500
CC(C)(C)S(=O)(=O)N1CCc2ccc(Nc3nc(NC4CCNCC4)nc4sccc34)cc21 | 640
CC(C)(C)S(=O)(=O)N1CCc2ccc(Nc3nc(NC4CCNCC4)nc4c3COC4)cc21 | 1580
Cc1cnc(NC2CCN(C)CC2)nc1Nc1cccc(NS(=O)(=O)C(C)(C)C)c1 | 1340
CC1(C)CN(Cc2ccccc2)CCC1Nc1nc(Nc2cccc(NS(=O)(=O)C(C)(C)C)c2)c2ccsc2n1 (centres unmarked) | 7500
CN1CCC(Nc2nc(Nc3ccc(Cl)c(NS(=O)(=O)C(C)(C)C)c3)c3ccsc3n2)CC1 | 180
CN1CCN(c2ccc(Nc3ncc4ccn(-c5ccc(Cl)c(NS(=O)(=O)C6CC6)c5)c4n3)cc2)CC1 | 1700
COc1cc(Nc2ncc3ccn(-c4ccc(F)c(NS(=O)(=O)C5CC5)c4)c3n2)ccc1N1CCN(C)CC1 | 989
CC(C)(C)S(=O)(=O)Nc1cccc(-n2ccc3cnc(Nc4ccc5c(c4)CCN4CCNCC54)nc32)c1 (centres unmarked) | 750
CC(C)(C)S(=O)(=O)Nc1cccc(Nc2nc(NC3CCNCC3)nc3sccc23)c1 [drawing 151] | 94
CN1CCN(c2ccc(Nc3nc(Nc4cccc(NS(=O)(=O)C(C)(C)C)c4)c4ccsc4n3)cc2)CC1 [drawing 153] | 609
CC(C)(C)S(=O)(=O)Nc1cccc(Nc2nc(NC3CCNCC3)nc3sccc23)c1 [drawing 159] | 344
CN1CCC(Nc2nc(Nc3ccc4c(c3)N(S(=O)(=O)C(C)(C)C)CC4)c3ccsc3n2)CC1 [drawing 185] | 220
CC(C)(C)S(=O)(=O)N1CCc2ccc(Nc3nc(NCC4CCNCC4)nc4sccc34)cc21 [drawing 218] | 2170
CC(C)(C)S(=O)(=O)Nc1cccc(Nc2nc(NC3CCNC3)nc3sccc23)c1 (centres unmarked) [drawing 222] | 2380
Cc1cnc(Nc2ccc(N3CCN(C)CC3)c(F)c2)nc1Nc1ccc2c(c1)N(S(=O)(=O)C(C)(C)C)CC2 [drawing 235] | 155
CC(C)(C)S(=O)(=O)Nc1cccc(Nc2nc(NC3CCNCC3)nc3sccc23)c1 [drawing 237] | 194
CN1CCN(c2ccc(Nc3ncc4ccn(-c5cccc(NS(=O)(=O)C(C)(C)C)c5)c4n3)cc2)CC1 [drawing 288] | 5010
CNCCCOc1ccc(Nc2ncc3ccn(-c4cccc(NS(=O)(=O)C(C)(C)C)c4)c3n2)cc1F [drawing 448] | 337
CNCCCOc1ccc(Nc2ncc3ccn(-c4cccc(NS(=O)(=O)C(C)(C)C)c4)c3n2)cc1F [drawing 466] | 200

The remaining lines, values ahead:

IC50 [nM] | Compound
7190 | Cc1noc(C)c1-c1cccc(-c2c[nH]c3nc(N4CCN(C)CC4)ncc23)c1
1780 | O=C1NCCc2c1ccn2-c1cnc(Nc2ccccc2)nc1
9740 | COc1ccc(Nc2ncc(-n3ccc4c3CCNC4=O)cn2)cc1
11200 | O=C1NCCc2c1ccn2-c1cnc(Nc2ccc(F)cc2)nc1
4060 | CC1=NCC(C)=C1C1CCCC(c2c[nH]c3nc(N4CCNCC4)ncc23)C1 (centres unmarked)
5020 | CN1CCN(c2cccc(Nc3nc(Nc4cccc(NS(=O)(=O)C(C)(C)C)c4)c4ccsc4n3)c2)CC1
7400 | CC(C)(C)S(=O)(=O)Nc1ccc(Nc2nc(NC3CCNCC3)nc3sccc23)cc1
376 | CN1CCC(Nc2nc(Nc3cccc(NS(=O)(=O)C(C)(C)C)c3)c3ccsc3n2)CC1
3230 | CNCCNc1ncc2c(-c3cccc(-c4c(C)noc4C)c3)c[nH]c2n1
4560 | CN1CCN(c2ccc(Nc3nc(Nc4ccc5c(c4)N(S(=O)(=O)C(C)(C)C)CC5)c4ccsc4n3)cc2)CC1
2390 | CN1CCN(c2ccc(Nc3nc4c(c(Nc5ccc6c(c5)N(S(=O)(=O)C(C)(C)C)CC6)n3)COC4)cc2)CC1
1100 | CNCCNc1ncc2cc(-c3cccc(-c4c(C)noc4C)c3)ccc2n1
608 | CC(C)(C)S(=O)(=O)Nc1cccc(Nc2nc(NC3CCNCC3)nc3ccsc23)c1
2320 | CN1CCC(Nc2nc3c(c(Nc4cccc(NS(=O)(=O)C(C)(C)C)c4)n2)COC3)CC1
2110 | CN1CCC(Nc2nc(Nc3ccc4c(c3)N(S(=O)(=O)C(C)(C)C)CC4)c3sccc3n2)CC1
6310 | Cc1cnc(Nc2ccc(N3CCN(C)CC3)cc2)cc1Nc1cccc(NS(=O)(=O)C(C)(C)C)c1
3200 | CN1CCN(c2ccc(Nc3nc4c(c(Nc5cccc(NS(=O)(=O)C(C)(C)C)c5)n3)CCNC4)cc2)CC1
318 | Cc1ccc(Nc2nc(NC3CCNCC3)nc3sccc23)cc1NS(=O)(=O)C(C)(C)C
206 | Cc1ccc(Nc2nc(NC3CCN(C)CC3)nc3sccc23)cc1NS(=O)(=O)C(C)(C)C
208 | CC(C)(C)S(=O)(=O)Nc1cc(-n2ccc3cnc(Nc4ccc(N5CCNCC5)cc4)nc32)ccc1F
407 | CN1CCC(NC(=O)c2ccc(Nc3ncc4ccn(-c5cccc(NS(=O)(=O)C(C)(C)C)c5)c4n3)cc2)CC1
581 | CN1CCC(c2ccc(Nc3ncc4ccn(-c5cccc(NS(=O)(=O)C(C)(C)C)c5)c4n3)cc2)CC1
1800 | CN1CCN2c3c(F)cc(Nc4ncc5scc(-c6cccc(NS(=O)(=O)C(C)(C)C)c6)c5n4)cc3CC2C1 (centres unmarked)
526 | CN1CCN(c2ccc(Nc3nc4c(c(Nc5cccc(NS(=O)(=O)C(C)(C)C)c5)n3)COC4)cc2)CC1 [drawing 188]
2750 | CC(C)(C)S(=O)(=O)N1CCc2ccc(Nc3nc(NC4CCNC4)nc4sccc34)cc21 (centres unmarked) [drawing 217]
2670 | CC(C)(C)S(=O)(=O)Nc1cccc(Nc2nc(NCC3CCNCC3)nc3sccc23)c1 [drawing 220]
1830 | O=C(NC1CC1)c1ccn(-c2nc(NC3CCNCC3)nc3sccc23)c1 [drawing 229]
2200 | CN1CCC(Nc2nc(-n3ccc(C(=O)NC4CC4)c3)c3ccsc3n2)CC1 [drawing 230]
242 | CN1CCN(c2ccc(Nc3ncc4ccn(-c5cccc(NS(=O)(=O)C(C)(C)C)c5)c4n3)cc2)CC1 [drawing 275]
